These results are taken from patent publication US20060264419A1 (priority 2003, published 2006).

In one assay the target is 5-HT2A receptors (Rattus norvegicus, UniProt P14842). Description: in-vitro affinity to 5-HT2A receptors, displacement of [3H]ketanserine (Example A1). The class given is binding. The note with it: read-out: HT2A IC50. From the text: The 5-HT2A receptors are exposed both to [^3H]ketanserine (a substance which is known for its affinity to the receptor) and also to the test compound. The decrease in the affinity of [^3H]ketanserine to the receptor is an indication of the affinity of the test substance to the 5-HT2A receptor.
5-HT2A receptors, sequence (P14842 whole entry): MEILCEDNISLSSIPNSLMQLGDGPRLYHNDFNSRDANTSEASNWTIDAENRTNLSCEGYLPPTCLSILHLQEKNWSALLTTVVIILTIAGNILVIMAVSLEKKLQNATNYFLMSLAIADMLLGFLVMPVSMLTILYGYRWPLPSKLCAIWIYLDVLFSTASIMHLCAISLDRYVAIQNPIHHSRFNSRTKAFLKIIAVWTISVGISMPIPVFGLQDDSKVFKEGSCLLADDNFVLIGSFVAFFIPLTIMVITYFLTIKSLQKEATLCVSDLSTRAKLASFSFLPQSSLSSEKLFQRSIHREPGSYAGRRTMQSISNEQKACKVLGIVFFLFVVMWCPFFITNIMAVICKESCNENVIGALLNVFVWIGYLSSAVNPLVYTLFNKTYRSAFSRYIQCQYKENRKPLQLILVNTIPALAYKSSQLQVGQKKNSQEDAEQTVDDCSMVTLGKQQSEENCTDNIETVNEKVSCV
(Displacement assays read how much labelled ligand stays bound in the presence of the test substance.)
Take `CN1CCN(Cc2cnn(-c3ccc(-c4ccc(F)cc4)cc3)c2-c2cccc(F)c2)CC1` [Example 911, 1-[1-(4′-Fluorobiphenyl-4-yl)-5-(3-fluoro-phenyl)-1H-pyrazol-4-ylmethyl]-4-methyl-piperazine]: the IC50 (in general, the concentration at which inhibition is half-maximal) is 19 nM.
Same read-out and setting: with `CN(C)C1CCN(Cc2cnn(-c3ccc(-c4ccccc4)cc3)c2-c2ccccc2F)CC1` [Example 1008, {1-[1-Biphenyl-4-yl-5-(2-fluorophenyl)-1H-pyrazol-4-ylmethyl]piperidin-4-yl}dimethyl-amine] the figure was 200 nM.
For the compound `OCc1cnn(-c2ccc(-c3ccc(F)cc3)cc2)c1-c1ccccc1Cl` [Example 1048, [5-(2-Chlorophenyl)-1-(4′-fluoro-biphenyl-4-yl)-1H-pyrazol-4-yl]methanol], the IC50 was found to be 380 nM.
Regarding `Cc1cccc(-c2ccc(-n3ncc(CN4CCN(C)CC4)c3-c3ccccc3F)cc2)c1` [Example 1017, 1-[5-(2-Fluorophenyl)-1-(3′-methylbiphenyl-4-yl)-1H-pyrazol-4-ylmethyl]-4-methylpiperazine], the IC50 turned out to be 220 nM.
Same read-out and setting: with `Fc1ccccc1-c1c(CN2CC=CCC2)cnn1-c1ccc(-c2ccccc2)cc1` [Example 998, 1-[1-Biphenyl-4-yl-5-(2-fluorophenyl)-1H-pyrazol-4-ylmethyl]-1,2,3,6-tetrahydro-pyridine] the figure was 170 nM; with `OCCc1cnn(-c2ccc(-c3ccccc3)cc2)c1-c1ccccc1F` [Example 1059, 2-[1-Biphenyl-4-yl-5-(2-fluoro-phenyl)-1H-pyrazol-4-yl]ethanol], 470 nM; with `Fc1ccccc1-c1c(CN2CCC(Cc3cccnc3)CC2)cnn1-c1ccc(-c2ccccc2)cc1` [Example 962, 3-{1-[1-Biphenyl-4-yl-5-(2-fluoro-phenyl)-1H-pyrazol-4-ylmethyl}piperidin-4-ylmethyl]pyridine], 66 nM.
The same measure, in the same setting: with `Cc1nn(-c2ccccc2)c(C)c1CN1CCN(C(=O)CC(C)C(=O)O)CC1` (centres unmarked) [Example 978] the figure was 100 nM.
On the same count and under the same terms, with `CCOC(=O)N1CCC(N(C)Cc2cnn(-c3ccc(-c4ccccc4)cc3)c2-c2ccccc2F)CC1` [Example 999, Ethyl 4-{[1-biphenyl-4-yl-5-(2-fluorophenyl)-1H-pyrazol-4-ylmethyl]methylamino}piperidine-1-carboxylate] the figure was 170 nM; with `Cc1ccccc1-c1c(CN2CCN(C)CC2)cnn1-c1ccc(-c2ccc(F)cc2)cc1` [Example 966, 1-[1-(4′-Fluorobiphenyl-4-yl)-5-o-tolyl-1H-pyrazol-4-ylmethyl]-4-methyl-piperazine], 72 nM; with `CN1CCN(Cc2cnn(-c3ccc(-c4cccc(Cl)c4)cc3)c2-c2ccccc2F)CC1` [Example 963, 1-[1-(3′-Chlorobiphenyl-4-yl)-5-(2-fluoro-phenyl)-1H-pyrazol-4-ylmethyl]-4-methyl-piperazine], 69 nM.
On to `CN(C)C1CCN(Cc2cnn(-c3ccc(-c4ccccc4)cc3)c2-c2ccccc2F)C1` (centres unmarked) [Example 936, {1-[1-Biphenyl-4-yl-5-(2-fluoro-phenyl)-1H-pyrazol-4-ylmethyl]pyrrolidin-3-yl}dimethyl-amine], for which the IC50 worked out at 35 nM.
On the same count and under the same terms, with “1-(Biphenyl-4-yltrifluoromethyl-1H-pyrazol-4-ylmethyl)-4-methylpiperazine [Example 1026]” the figure was 260 nM; with `Fc1ccccc1-c1c(CNCCCn2ccnc2)cnn1-c1ccc(-c2ccccc2)cc1` [Example 1001, [1-Biphenyl-4-yl-5-(2-fluorophenyl)-1H-pyrazol-4-ylmethyl]-(3-imidazol-1-ylpropyl)amine], 170 nM; with `NC(=O)CN1CCN(Cc2cnn(-c3ccc(-c4ccccc4)cc3)c2-c2ccccc2F)CC1` [Example 1042, 2-{4-[1-Biphenyl-4-yl-5-(2-fluoro-phenyl)-1H-pyrazol-4-ylmethyl]piperazin-1-yl}acetamide], 360 nM.

The same assay, now with this note: target not given; description names affinity to 5-HT2A receptors; read-out: IC50.
Consider `CN1CCN(C(=O)c2cnn(-c3ccc(-c4ccccc4)cc3)c2-c2ccccc2F)CC1` [(52), 1-[1-Biphenyl-4-yl-5-(2-fluorophenyl)-1H-pyrazol-4-yl]-1-(4-methylpiperazin-1-yl)methanone], for which the half-inhibitory concentration (IC50) turned out to be 820 nM.
Still for that read-out and setting: the value for `Fc1ccccc1-c1c(CNc2cnccn2)cnn1-c1ccc(-c2ccccc2)cc1` [(158), [1-Biphenyl-4-yl-5-(2-fluorophenyl)-1H-pyrazol-4-ylmethyl]-pyrazin-2-ylamine] was 2300 nM; that for `OCC(Cc1cnc[nH]1)NCc1cnn(-c2ccc(-c3ccccc3)cc2)c1-c1ccccc1F` (centres unmarked) [(137), 2-{[1-Biphenyl-4-yl-5-(2-fluorophenyl)-1H-pyrazol-4-ylmethyl]-amino}-3-(3H-imidazol-4-yl)propan-1-ol] was 370 nM.
Same read-out and setting: with “1-Biphenyl-4-yl-5-(2-fluorophenyl)-4-(2-methoxy-methylpyrrolidin-1-ylmethyl)-1H-pyrazole [(48)]” the figure was 510 nM; with `CC(C)(C)OC(=O)N1CCN(Cc2cnn(-c3ccc(-c4ccccc4)cc3)c2-c2ccccn2)CC1` [(59), tert-Butyl 4-(1-biphenyl-4-yl-5-pyridin-2-yl-1H-pyrazol-4-ylmethyl)piperazine-1-carboxylate], 780 nM; with `NC(=O)CNCc1cnn(-c2ccc(-c3ccccc3)cc2)c1-c1ccccc1F` [(118), 2-{[1-Biphenyl-4-yl-5-(2-fluorophenyl)-1H-pyrazol-4-ylmethyl]-amino}acetamide], 730 nM.
Still for that read-out and setting: the value for `Fc1ccc(-c2ccc(-n3ncc(CN4CCCC4)c3-c3ccccc3F)cn2)cc1` [(142), 2-(4-Fluorophenyl)-5-[5-(2-fluorophenyl)-4-pyrrolidin-1-ylmethylpyrazol-1-yl]pyridine] was 75 nM; that for `Fc1ccccc1-c1c(CN2CCOCC2)cnn1-c1ccc(-c2cccs2)cc1` [(62), 4-[5-(2-Fluorophenyl)-1-(4-thiophen-2-ylphenyl)-1H-pyrazol-4-ylmethyl]morpholine] was 620 nM; that for `Fc1ccccc1-c1c(CCl)cnn1-c1ccc(-c2ccccc2)cc1` [(189), 1-Biphenyl-4-yl-4-chloromethyl-5-(2-fluorophenyl)-1H-pyrazole] was 1100 nM.
Regarding `Fc1ccc(F)c(-c2ccc(-n3ncc(CNc4cc[nH]n4)c3-c3ccccc3F)cc2)c1` [(140), [1-(2′,5′-Difluorobiphenyl-4-yl)-5-(2-fluorophenyl)-1H-pyrazol-4-ylmethyl]-(1H-pyrazol-3-yl)amine], the IC50 came to 180 nM.
`CC(C)(C)OC(=O)N1CC2C(C1)C2NCc1cnn(-c2ccc(-c3ccccc3)cc2)c1-c1ccccc1F` (centres unmarked) [(190), tert-Butyl 6-{[1-biphenyl-4-yl-5-(2-fluorophenyl)-1H-pyrazol-4-ylmethyl]amino}-3-azabicyclo[3.1.0]hexane-3-carboxylate]: the IC50 is 520 nM.
Same read-out and setting: the value for `Fc1ccccc1-c1c(CNC2C3CNCC32)cnn1-c1ccc(-c2ccccc2)cc1` (centres unmarked) [(192), (3-Azabicyclo[3.1.0]hex-6-yl)-[1-biphenyl-4-yl-5-(2-fluorophenyl)-1H-pyrazol-4-ylmethyl]amine] was 320 nM; that for `C=CCC(O)c1cnn(-c2ccc(-c3ccccc3)cc2)c1-c1ccccc1F` (centres unmarked) [(150), 1-[1-Biphenyl-4-yl-5-(2-fluorophenyl)-1H-pyrazol-4-yl]-but-3-en-1-ol] was 1300 nM.
Still for that read-out and setting: with `Fc1ccccc1-c1c(CN2CCCCC2)cnn1-c1ccc(-c2ccccc2)cc1` [(23), 1-[1-Biphenyl-4-yl-5-(2-fluorophenyl)-1H-pyrazol-4-ylmethyl]-piperidine] the figure was 30 nM.
Still for that read-out and setting: the value for `CN1CCN(Cc2cnn(-c3ccc(-c4cc(F)ccc4F)nc3)c2-c2ccccc2F)CC1` [(147), 1-[1-[6-(2,5-Difluorophenyl)pyridin-3-yl]-5-(2-fluorophenyl)-1H-pyrazol-4-ylmethyl]-4-methylpiperazine] was 430 nM; that for `COc1ccccc1-c1c(CN2CCN(C)CC2)cnn1-c1ccc(-c2ccccc2F)cc1` [(104), 1-[1-(2′-Fluorobiphenyl-4-yl)-5-(2-methoxyphenyl)-1H-pyrazol-4-ylmethyl]-4-methylpiperazine] was 52 nM; that for `Fc1ccccc1-c1c(CNCc2nc3ccccc3[nH]2)cnn1-c1ccc(-c2ccccc2)cc1` [(133), (1H-Benzoimidazol-2-ylmethyl)-[1-biphenyl-4-yl-5-(2-fluorophenyl)-1H-pyrazol-4-ylmethyl]amine] was 76 nM.
Regarding `COCCN(C)Cc1cnn(-c2ccc(-c3ccccc3)nc2)c1-c1ccccc1F` [(134), [5-(2-Fluorophenyl)-1-(6-phenylpyridin-3-yl)-1H-pyrazol-4-ylmethyl]-(2-methoxyethyl)methylamine], the IC50 is 300 nM.
Still for that read-out and setting: the value for `CC1CN(Cc2cnn(-c3ccc(-c4ccccc4)cc3)c2-c2ccccc2F)CC(C)N1` (centres unmarked) [(95), 1-[1-Biphenyl-4-yl-5-(2-fluorophenyl)-1H-pyrazol-4-ylmethyl]-3,5-dimethylpiperazine] was 100 nM.
The same measure, in the same setting: the value for `O=C(NCCO)C1CCN(Cc2cnn(-c3ccc(-c4ccccc4)cc3)c2-c2ccccc2F)CC1` [(164), N-(2-Hydroxyethyl)-1-[1-biphenyl-4-yl-5-(2-fluorophenyl)-1H-pyrazol-4-ylmethyl]piperidine-4-carboxamide] was 270 nM; that for `Fc1ccccc1-c1c(C=NNC2=NCCN2)cnn1-c1ccc(-c2ccccc2)cc1` [(166), N-[1-Biphenyl-4-yl-5-(2-fluorophenyl)-1H-pyrazol-4-yl-methylene]-N′-(4,5-dihydro-1H-imidazol-2-yl)hydrazine] was 1200 nM.
Take `CC(=O)OCc1cnn(-c2ccc(-c3ccccc3)cc2)c1-c1ccccc1F` [(22), 1-Biphenyl-4-yl-5-(2-fluorophenyl)-1H-pyrazol-4-ylmethyl acetate]: the IC50 worked out at 1400 nM.
The same measure, in the same setting: with `OCCNCc1cnn(-c2ccc(-c3ccccc3)cc2)c1-c1ccccc1F` [(77), 2-{[1-Biphenyl-4-yl-5-(2-fluorophenyl)-1H-pyrazol-4-ylmethyl]-amino}ethanol] the figure was 5.2 nM.
